The subject of experiment [1] is HCC. The experiment in a line: Thalidomide as adjuvant therapy after curative resection for HCC, HCC recurrence by LHX4 expression group (Kaplan-Meier). It is filed as in vivo, human. The note with it: for HCC recurrence rate (%) / Number of HCC recurrence patients: three-year. As for the experimental part: Samples of liver tissue were obtained from 48 patients, who suffered HCC at stage II or III (defined by American Joint Committee on Cancer, AJCC) and underwent curative resection for the HCC. All of the patients were enrolled within 4 weeks after surgery. 27 of the patients received Thalidomide 200 mg/day and the others received a placebo 200 mg/day for 12 months or until HCC recurrence.
The sample of liver tissue from each patient includes tumorous tissue and non-tumorous tissue neighboring the tumorous tissue. The respective Lhx4 proteins in the tumorous and non-tumorous tissues of each patient were detected using western blot and then quantified by ImageJ software (published by the National Institutes of Health of United States of America). The quantified results of the Lhx4 proteins in the tumorous and non-tumorous tissues were respectively normalized based on the quantified results of β-actin in the tumorous and non-tumorous tissues of the corresponding patient to obtain the (protein) expression levels of the LHX4 gene in the tumorous and non-tumorous tissues of the patient.
For each and every patient, the expression level of the LHX4 gene in the tumorous tissue (called “T” hereinafter) was divided by the expression level of the LHX4 gene in the non-tumorous tissue (called “NT” hereinafter) to obtain a T/NT ratio, which represents the decreasing magnitude of the expression level of the LHX4 gene in the tumorous tissue when compared with the non-tumorous tissue.
In an embodiment, the correlation between the decreasing magnitude of the expression level of the LHX4 gene in the tumorous tissue of a patient and the therapeutic effect of Thalidomide on the liver cancer of the patient is indicated by the HCC recurrence of the patient. Specifically, the end date of observation of a patient's HCC recurrence is set as the date three years after the surgery for the liver cancer.
In an embodiment, the 48 patients were divided into two groups according the T/NT ratio to evaluate the therapeutic effect of Thalidomide on the patients. […]
Each of FIGS. 2A, 2B and 2C show the respective 3-year HCC recurrence-free survival days (from the date that the patient underwent the surgery for the liver cancer to the date of observing the HCC recurrence of the patient) of the patients, where the event in the curves is the first HCC recurrence of a patient after the surgery.
In an embodiment, for each of the 48 patients, the LHX4 expression level in the tumorous tissue was obtained through normalizing the quantified result of the western blot of the Lhx4 protein of the tumorous tissue based on a specific amount of β-actin in the tumorous tissue. After the normalization, the LHX4 expression levels in the tumorous tissue of all the patients, normalized by the same amount of β-actin, were obtained. […] Each of FIGS. 3A, 3B and 3C show the respective 3-year HCC recurrence-free survival days (from the date that the patient underwent the surgery for the liver cancer to the date of observing the HCC recurrence of the patient) of the patients, where the event of the curves is the first HCC recurrence in a patient after the surgery.

For experiment [2], the system named is HCC. The note with it: adjuvant therapy after surgical resection; placebo 33%; cited from earlier work.
Where [3] appears, read: T/NT ratio < 0.2, 13 total patients.
Where [4] appears, read: T/NT ratio ≧ 0.2, 14 total patients.

Molecules are shown by their SMILES.

On to `O=C1CCC(N2C(=O)c3ccccc3C2=O)C(=O)N1` (racemic) [Thalidomide, (RS)-2-(2,6-dioxopiperidin-3-yl)-1H-isoindole-1,3(2H)-dione], for which the “mean 3-year HCC recurrence-free survival days, lower group compared with higher group” value with HCC [1] (groups divided by arithmetic average of LHX4 expression levels in tumorous tissue, patients receiving Thalidomide) is reported as “obviously delayed”. In addition, the “mean 3-year HCC recurrence-free survival days” value with HCC [1] (higher group, LHX4 expression level in tumorous tissue not lower than 0.17 (median), 14 patients, FIG. 3B/3C, P=0.567 vs placebo (535 days)) turned out to be 466 days; in the experiment on HCC [1] (higher group, T/NT ratio not lower than 0.2, Thalidomide 200 mg/day, 14 patients, FIG. 1B/1C, P=0.687 vs placebo (535 days)), 521 days; with HCC [1] (higher group, T/NT ratio not lower than 0.5, 5 patients, FIG. 2B/2C, P=0.272 vs placebo (493 days)), 344 days; in the experiment with HCC [1] (lower group, LHX4 expression level in tumorous tissue lower than 0.17 (median), 13 patients, FIG. 3A/3C, P=0.033 vs placebo (526 days)), 833 days; in the experiment on HCC [1] (lower group, T/NT ratio lower than 0.2, Thalidomide 200 mg/day, 13 patients, FIG. 1A/1C, P=0.06 vs placebo (526 days)), 744 days; with HCC [1] (lower group, T/NT ratio lower than 0.5, 22 patients, FIG. 2A/2C, P=0.2 vs placebo (545 days)), 711 days. The figures for the “HCC recurrence rate (%)” value in the experiment on HCC [1] (setting [3]) and in the experiment on HCC [1] (setting [4]) were 38.5% and 85.7%, respectively. In addition, the results for the “Number of HCC recurrence patients” value in the experiment with HCC [1] (setting [3]) and with HCC [1] (setting [4]) were 5 and 12, respectively. In the experiment with HCC [2], the “two-year HCC recurrence-free survival rate” value was 65%.

(Values after patent US20150192565A1, “METHOD FOR EVALUATING THERAPEUTIC EFFECT OF T[…] APPLICATION THEREOF” (NATIONAL TAIWAN UNIVERSITY, priority 2014, published 2015).)
